Reference: article PMC12261321, “Inhibitors of the Bacterioferritin Ferredoxin Complex Dysregulate Iron Homeostasis and Kill and Biofilm-Embedded Cells” (ACS Infectious Diseases, 2025)
≈ marks a conversion by molar mass, not a printed value.

How the values were obtained:
[1] = Determination of compound aqueous solubility in M63 media; assay type: physicochemical; conditions: in M63 media at 35 °C
Protocol: Determination of Compound Aqueous Solubility. Compound stocks (100 mM in DMSO) were prepared from […]
powder and then further diluted with DMSO to prepare 20 mM working solutions, which were diluted as needed […]
in DMSO. 15 µL o f the DMSO solution was then d iluted to a final volume o f 1.0 mL in M63 media. Six solutions […]
were prepared for each compound, each with a distinct concentration and 1.5% DMSO (v/v). 700 µL of each […]
compound solution was transferred to a polystyrene 48-well plate (VWR), followed by acquisition of UV-vis […]
spectra (300 to 700 nm) with the aid of an Epoch 2 microplate reader (B i o Te k ). […]
Following the acquisition of UV-vis spectra, each of the wells in the plate was inspected under a […]
microscope for evidence of precipitation. Evidence of precipitation at any given concentration was determined by observing a shift in the baseline of the UV-vis spectra relative to the blank (M63 media) and/or evidence of visual precipitation with the aid of a micros cope. […]

[2] = system: P. aeruginosa PAO1; assay: Half maximal inhibitory concentration (IC50), planktonic growth (CFU/mL); assay type: cell-based; conditions: M63 media, 18 h
Protocol: Measurement of Half Maximal Inhibitory Concentration (IC50). IC50 values were determined as reported earlier13 with some modifications. Compound stock solutions in DMSO (100 mM and 10 mM) were prepared from powd er. To prep are the cell susp ensions utilized in the measu rements, starter cultures o f P. aeru ginosa wer e diluted to an optical density at 600 nm (OD600) = 0.005 in fresh LB media (5 mL) and then cultured at 37°C and 220 rpm for 4 h prior to diluting to an OD600 = 0.0001 in M63. A small volume of compound stock solution w as further diluted in DMSO to 30 µL and then diluted in M63 cell suspension to a final volume of 2.0 mL. The resultant solution was placed in a well of a 96-well plate and then serially 2-fold diluted in M63 cell suspension to produce 6 distinct com pound concent rations, each with 1.5% DMSO. Th e plate was co ver ed and incubated for 18 h at 35 °C in a Synergy H1 plate reader (Biotek). The resultant cell cultures were serially diluted in PBS and then plated on PI Agar plates (PIA; BD biosciences) for counting viable cells (CFU/mL). The % growth was calculated from the ratio CFU/mL(t reat ed )/CFU/mL(untreated control). To calculate the IC50 values, the % growth was plotted as a function of compound concentration expressed as log[compound] ( µM), and fitted to equation S1 describing the sigmoid- shaped response pattern, 14 where b is the slope factor, max is the upper asymptote (plateau), and min is the lower asymptote. IC 50 values are the average and standard deviation from three independent experiments , each conducted with thr ee techni cal replicates.

[3] = system: A. baumannii 5075; assay: MIC, broth microdilution in M63 media; assay type: cell-based
Protocol: (§1) Measurement of Minimum Inhibitory Concentrations (MIC). The MIC of compounds and select ed antibiotics against three strains of A. baumannii (5075, ATCC 17988, and ATCC 19606) were determined via the broth microdilution method according to Clinical and Laboratory Standard Instit ute (CLSI) guidelines,15 but culturing […]
(§2) To establish a 2-fold dilution series of compound, 985 μ L of diluted cells was mixed with 15 μ L of compound […]
(§3) dissolved in DMSO, such that the resultant solution had the highest concentration of compound or antibiotic tested and 1.5% DMSO. To carry out the serial dilution from the highest compound concentration, a 150 μ L solution of higher concentration compound or antibiotic was mixed with 150 μ L of cell suspension containing 1.5% DMSO in the wells of a 96 well plate.
(§4) Th e 96 well plate was in cubated for 20 hat 35 °C with continuous orbital shaking (205 cpm) in an Epoch2 microplate reader (BioTek), monitoring the growth by […]
(§5) following the OD600. […]
(§6) FFFFFF = MMMMMMAA iiii ccllccbbiiiicccciilliiMMMMMMAA+ MMMMMMBB iiii ccllccbbiiiicccciilliiMMMMMMBB S2 Time Kill Assays. Time-kill assays were performed with A. baumannii 507 5 by the broth macro- dilution method in M63- medium containing 1.5% DMSO. An overnight culture was diluted to approximately 5 x10^5 CFU/mL in fresh M63 media. The test solutions were prepared by adding compound (KM-5- 35, or KM-5- 25) dissolved in DMSO to 5 mL of diluted cell suspension to yield a solution of the desired compound concentration and 1.5% DMSO, or by the addition of antibiotic dissolved in water and a small volume of DMSO to produce the desired

[4] = system: A. baumannii ATCC 17978; assay: MIC, broth microdilution in M63 media; assay type: cell-based
Protocol: as §1, §2, §3, §4, §5, §6

[5] = system: A. baumannii ATCC 19606; assay: MIC, broth microdilution in M63 media; assay type: cell-based
Protocol: as §1, §2, §3, §4, §5, §6

[6] = target: T1, recombinant Pa BfrB (Pseudomonas aeruginosa, UniProt Q9HY79); assay: Dissociation constant (Kd), fluorescence quenching titration of apo Pa BfrB; assay type: binding, P. aeruginosa
T1 construct: made in house; host or cells: E. coli
T1 sequence (Q9HY79 whole entry): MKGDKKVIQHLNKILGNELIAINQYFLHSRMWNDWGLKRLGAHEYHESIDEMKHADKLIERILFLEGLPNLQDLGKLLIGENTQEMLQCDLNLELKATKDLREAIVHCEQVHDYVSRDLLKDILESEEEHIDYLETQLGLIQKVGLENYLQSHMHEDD
Protocol: Measurement of Dissociation Constant (Kd) R ecombinant Pa BfrB was expressed in E. coli and purified as previously reported.19 Apo-BfrB (devoid of heme) was utilized for the measurements to prevent heme-driven fluorescence quenching. A 0.5 mL solution contai ning 0.01 µM apo Pa-BfrB in PBS (pH = 7.4) containing0.5% DMSO was plac ed into a 1 cm quartz cuvette wh ere it was titrated with aliq uots of compound dissolved in a 50% (v/v) PBS/DMSO solution. The fluorescence quenching brought by the addition of each aliquot was monitored with the aid of an Agilent Cary Fluorometer , with excitation at 280 nm, emission at 320- 470 nm, 10 x10 nm slit width, and an average of 5 scans per spectrum. Th e binding assay included at least 8 aliquots spanning from ~ 0.1 […]
A control titration was carried out by titrati ng compound into PBS buffer. The Kd was cal culated by fitting the data to equation S4, w here Fb is the fraction bound and Fmax is the fraction bound at saturating compound concentration.
FFbb = FFmmmmmm ? [ccccmmccccccmmcc ]? (S4) […]

[7] = M63 media with 1.5% DMSO, 35 °C, aqueous buffer, kinetic from dmso stock
[8] = Pseudomonas aeruginosa, PAO1, planktonic cells
[9] = Acinetobacter baumannii, 5075, 20 h
[10] = Acinetobacter baumannii, ATCC17978, 20 h
[11] = Acinetobacter baumannii, ATCC19606, 20 h

Compound	solubility at 4 h [1, 7] [µM]	IC50 [2, 8] [µM]	MIC [3, 9] [µM]	MIC [4, 10] [µM]	MIC [5, 11] [µM]	solubility at 4 h [1] [µM]	Kd [6] [µM]	IC50 ([2]; planktonic cells) [µM]	MIC ([3]; 20 h) [µM]	MIC ([4]; 20 h) [µM]	MIC ([5]; 20 h) [µM]	IC50, P. aeruginosa PAO1 ([2]; planktonic cells)
O=C1NC(=O)c2c(NCc3ccccc3O)cccc21 [Analog 11, 4-((2-Hydroxybenzyl)amino)isoindoline-1,3-dione]	200 (≈ 53.7 µg/mL)	178 ± 14	80 (≈ 21.5 µg/mL)	120 (≈ 32.2 µg/mL)	80 (≈ 21.5 µg/mL)	–	–	–	–	–	–	–
O=C1NC(=O)c2c(NCc3ccc(Br)cc3O)cccc21 [EB-5-61]	–	–	–	–	–	60 (≈ 20.8 µg/mL)	13 ± 3	24 ± 2	50 (≈ 17.4 µg/mL)	50 (≈ 17.4 µg/mL)	50 (≈ 17.4 µg/mL)	–
Cc1ccc(CNc2cccc3c2C(=O)NC3=O)c(O)c1 [EB-5-69]	–	–	–	–	–	80 (≈ 22.6 µg/mL)	45 ± 6	–	80 (≈ 22.6 µg/mL)	80 (≈ 22.6 µg/mL)	80 (≈ 22.6 µg/mL)	Not active
Cc1cccc(CNc2cccc3c2C(=O)NC3=O)c1O [EB-5-70]	–	–	–	–	–	100 (≈ 28.2 µg/mL)	17 ± 2	–	100 (≈ 28.2 µg/mL)	100 (≈ 28.2 µg/mL)	100 (≈ 28.2 µg/mL)	Not active
O=C1NC(=O)c2c(NCc3c(O)cccc3F)cccc21 [EB-5-71]	–	–	–	–	–	150 (≈ 42.9 µg/mL)	56 ± 10	80 ± 10	75 (≈ 21.5 µg/mL)	75 (≈ 21.5 µg/mL)	75 (≈ 21.5 µg/mL)	–
O=C1NC(=O)c2c(NCc3c(O)cccc3Br)cccc21 [EB-5-72]	–	–	–	–	–	60 (≈ 20.8 µg/mL)	15 ± 3	32 ± 5	> 60	> 60	> 60	–
O=C1NC(=O)c2c(NCc3cccc(Br)c3O)cccc21 [EB-5-73]	–	–	–	–	–	40 (≈ 13.9 µg/mL)	7 ± 2	–	> 40	40 (≈ 13.9 µg/mL)	> 40	Not active
O=C1NC(=O)c2c(NCc3cccc(F)c3O)cccc21 [EB-5-80]	–	–	–	–	–	100 (≈ 28.6 µg/mL)	49 ± 7	–	> 100	> 100	> 100	Not active
O=C1NC(=O)c2c(NCc3cc(F)ccc3O)cccc21 [JAG-5-7]	180 (≈ 51.5 µg/mL)	83 ± 19	60 (≈ 17.2 µg/mL)	60 (≈ 17.2 µg/mL)	60 (≈ 17.2 µg/mL)	–	24 ± 6	–	–	–	–	–
O=C1NC(=O)c2c(NCc3cc(Cl)ccc3O)cccc21 [KM-5-25, 4-((5-Chloro-2-hydroxybenzyl)amino)isoindoline-1,3-dione]	–	–	–	–	–	80 (≈ 24.2 µg/mL)	10 ± 2	31 ± 7	40 (≈ 12.1 µg/mL)	40 (≈ 12.1 µg/mL)	30 (≈ 9.08 µg/mL)	–
O=C1NC(=O)c2c(NCc3c(O)cccc3Cl)cccc21 [KM-5-29]	–	–	–	–	–	60 (≈ 18.2 µg/mL)	18 ± 3	36 ± 5	> 60	> 60	> 60	–
O=C1NC(=O)c2c(NCc3cccc(Cl)c3O)cccc21 [KM-5-30]	–	–	–	–	–	80 (≈ 24.2 µg/mL)	11 ± 3	57 ± 2	> 80	> 80	> 80	–
O=C1NC(=O)c2c(NCc3cc(Br)ccc3O)cccc21 [KM-5-35, 4-((5-Bromo-2-hydroxybenzyl)amino)isoindoline-1,3-dione]	–	–	–	–	–	60 (≈ 20.8 µg/mL)	9 ± 3	27 ± 3	40 (≈ 13.9 µg/mL)	30 (≈ 10.4 µg/mL)	30 (≈ 10.4 µg/mL)	–
O=C1NC(=O)c2c(NCc3cc(Cl)ccc3O)ccc(Br)c21 [SB-16-51]	–	–	–	–	–	20 (≈ 7.63 µg/mL)	13 ± 2	18 ± 3	10 (≈ 3.82 µg/mL)	15 (≈ 5.72 µg/mL)	15 (≈ 5.72 µg/mL)	–
CC(C)(C)c1ccc(O)c(CNc2cccc3c2C(=O)NC3=O)c1 [SB-16-53]	30 (≈ 9.73 µg/mL)	12 ± 6	30 (≈ 9.73 µg/mL)	30 (≈ 9.73 µg/mL)	30 (≈ 9.73 µg/mL)	–	1 ± 0.2	–	–	–	–	–
O=C1NC(=O)c2c(NCc3cc(F)ccc3O)ccc(Br)c21 [SB-16-67]	–	–	–	–	–	40 (≈ 14.6 µg/mL)	7 ± 1	> 40	40 (≈ 14.6 µg/mL)	20 (≈ 7.3 µg/mL)	30 (≈ 11 µg/mL)	–
Cc1cc(Br)cc(CNc2cccc3c2C(=O)NC3=O)c1O [SB-16-106]	–	–	–	–	–	30 (≈ 10.8 µg/mL)	3 ± 1	14 ± 4	20 (≈ 7.22 µg/mL)	15 (≈ 5.42 µg/mL)	30 (≈ 10.8 µg/mL)	–
O=C1NC(=O)c2c(NCc3cc(Br)c(F)cc3O)cccc21 [SB-16-112]	–	–	–	–	–	30 (≈ 11 µg/mL)	2 ± 0.6	14 ± 3	20 (≈ 7.3 µg/mL)	20 (≈ 7.3 µg/mL)	20 (≈ 7.3 µg/mL)	–
O=C1NC(=O)c2c(NCc3cc(Br)cc(F)c3O)cccc21 [SB-16-118]	–	–	–	–	–	40 (≈ 14.6 µg/mL)	4 ± 0.3	25 ± 8	20 (≈ 7.3 µg/mL)	30 (≈ 11 µg/mL)	30 (≈ 11 µg/mL)	–
O=C1NC(=O)c2c(NCc3cc(Br)ccc3O)ccc(Cl)c21 [SB-16-124]	–	–	–	–	–	20 (≈ 7.63 µg/mL)	11 ± 1	17 ± 2	20 (≈ 7.63 µg/mL)	20 (≈ 7.63 µg/mL)	20 (≈ 7.63 µg/mL)	–
O=C1NC(=O)c2c(NCc3cc(Br)cc(O)c3O)cccc21 [SB-16-136]	–	–	–	–	–	60 (≈ 21.8 µg/mL)	7 ± 1	20 ± 5	40 (≈ 14.5 µg/mL)	30 (≈ 10.9 µg/mL)	30 (≈ 10.9 µg/mL)	–
O=C1NC(=O)c2c(NCc3cc(Br)c(O)cc3O)cccc21 [SB-16-137]	–	–	–	–	–	80 (≈ 29.1 µg/mL)	9 ± 0.4	37 ± 4	> 80	> 80	> 80	–
Cc1cc(Cl)cc(CNc2cccc3c2C(=O)NC3=O)c1O [SB-16-156]	–	–	–	–	–	40 (≈ 12.7 µg/mL)	7 ± 2	21 ± 5	> 40	> 40	> 40	–
